Experimental data as given in ChEMBL document CHEMBL3885861, “Open TG-GATES”.

Species: Rattus norvegicus
Assay: Open TG-GATES - Regimen: Single
Assay type: toxicity, organism-based, Sprague-Dawley
Parameters: regimen Single, gender Male, age 6 weeks
Settings: in vivo, po, 300 mg/kg, route gavage, dose level Low; for APTT / Bas / Eos / Fbg / Hb / Ht / Lym / MCH / MCHC / MCV / Mono / Neu / PT / Plat / RBC / Ret / WBC: tissue Blood; for KIDNEY_L / KIDNEY_R / KIDNEY_TOTAL: tissue Kidney; for LIVER: tissue Liver; for A/G / ALP / ALT / AST / BUN / CRE / Ca / Cl / DBIL / GLC / IP / K / LDH / Na / PL / RALB / TBIL / TC / TG / TP / gamma-GTP: tissue Plasma

## Clc1c(Cl)c(Cl)c(Cl)c(Cl)c1Cl [PERCHLOROBENZENE]
3 h
  TERMINAL_BW: 219 g
  APTT: 18.9 s
  Bas: 0%
  Eos: 1%
  Fbg: 225 mg/dL
  Hb: 13.3 g/dL
  Ht: 37.8%
  Lym: 72.2%
  MCH: 21.8 pg
  MCHC: 35.2%
  MCV: 61.7 fL
  Mono: 2.8%
  Neu: 23.2%
  PT: 11.9 s
  Plat: 121.8 x10_4/uL
  RBC: 613.6 x10_4/ul
  Ret: 7.1%
  WBC: 86.9 x10_2/uL
  KIDNEY_L: 1 g
  KIDNEY_R: 1 g
  KIDNEY_TOTAL: 2 g
  LIVER: 9.9 g
  A/G: 1.7
  ALP: 1023.6 IU/L
  ALT: 42.4 IU/L
  AST: 87.2 IU/L
  BUN: 10.2 mg/dL
  CRE: 0.4 mg/dL
  Ca: 10.7 mg/dL
  Cl: 103 meq/L
  DBIL: 0.062 mg/dL
  GLC: 195.8 mg/dL
  IP: 9.2 mg/dL
  K: 3.9 meq/L
  LDH: 211 IU/L
  Na: 140.2 meq/L
  PL: 145.8 mg/dL
  RALB: 3.4 g/dL
  TBIL: 0.1 mg/dL
  TC: 72.6 mg/dL
  TG: 109 mg/dL
  TP: 5.4 g/dL
  gamma-GTP: 1 IU/L
6 h
  TERMINAL_BW: 218.5 g
  APTT: 17.9 s
  Bas: 0.2%
  Eos: 1%
  Fbg: 233.6 mg/dL
  Hb: 13.6 g/dL
  Ht: 38.5%
  Lym: 77.2%
  MCH: 21.9 pg
  MCHC: 35.3%
  MCV: 62 fL
  Mono: 3.6%
  Neu: 17.2%
  PT: 11.9 s
  Plat: 123.5 x10_4/uL
  RBC: 623.6 x10_4/ul
  Ret: 7%
  WBC: 100 x10_2/uL
  KIDNEY_L: 1 g
  KIDNEY_R: 1 g
  KIDNEY_TOTAL: 1.9 g
  LIVER: 8.9 g
  A/G: 1.6
  ALP: 1089 IU/L
  ALT: 31.4 IU/L
  AST: 73.2 IU/L
  BUN: 8.4 mg/dL
  CRE: 0.4 mg/dL
  Ca: 10.5 mg/dL
  Cl: 102.8 meq/L
  DBIL: 0.072 mg/dL
  GLC: 190.6 mg/dL
  IP: 9.4 mg/dL
  K: 4.1 meq/L
  LDH: 224.4 IU/L
  Na: 140.8 meq/L
  PL: 130.6 mg/dL
  RALB: 3.4 g/dL
  TBIL: 0.1 mg/dL
  TC: 70.2 mg/dL
  TG: 56 mg/dL
  TP: 5.5 g/dL
  gamma-GTP: 1 IU/L
9 h
  TERMINAL_BW: 213.9 g
  APTT: 18.1 s
  Bas: 0%
  Eos: 0.8%
  Fbg: 228 mg/dL
  Hb: 13.9 g/dL
  Ht: 39.4%
  Lym: 78.6%
  MCH: 21.6 pg
  MCHC: 35.2%
  MCV: 61.5 fL
  Mono: 3%
  Neu: 16%
  PT: 12.5 s
  Plat: 125.7 x10_4/uL
  RBC: 641.2 x10_4/ul
  Ret: 6.4%
  WBC: 85.4 x10_2/uL
  KIDNEY_L: 1 g
  KIDNEY_R: 0.9 g
  KIDNEY_TOTAL: 1.9 g
  LIVER: 8.7 g
  A/G: 1.6
  ALP: 857 IU/L
  ALT: 30.6 IU/L
  AST: 75.4 IU/L
  BUN: 9.8 mg/dL
  CRE: 0.4 mg/dL
  Ca: 10.5 mg/dL
  Cl: 104.2 meq/L
  DBIL: 0.066 mg/dL
  GLC: 202.8 mg/dL
  IP: 10.2 mg/dL
  K: 3.8 meq/L
  LDH: 222 IU/L
  Na: 142.6 meq/L
  PL: 119.8 mg/dL
  RALB: 3.4 g/dL
  TBIL: 0.1 mg/dL
  TC: 63.6 mg/dL
  TG: 44.8 mg/dL
  TP: 5.5 g/dL
  gamma-GTP: 1.2 IU/L
24 h
  TERMINAL_BW: 230 g
  APTT: 17.8 s
  Bas: 0.8%
  Eos: 1%
  Fbg: 225 mg/dL
  Hb: 13.6 g/dL
  Ht: 38.8%
  Lym: 78%
  MCH: 21.9 pg
  MCHC: 35.1%
  MCV: 62.4 fL
  Mono: 3%
  Neu: 17.2%
  PT: 11.8 s
  Plat: 114.2 x10_4/uL
  RBC: 621 x10_4/ul
  Ret: 6.4%
  WBC: 81.3 x10_2/uL
  KIDNEY_L: 1 g
  KIDNEY_R: 1 g
  KIDNEY_TOTAL: 2.1 g
  LIVER: 11 g
  A/G: 1.6
  ALP: 883.2 IU/L
  ALT: 32 IU/L
  AST: 61.8 IU/L
  BUN: 13.2 mg/dL
  CRE: 0.4 mg/dL
  Ca: 10.9 mg/dL
  Cl: 103.2 meq/L
  DBIL: 0.058 mg/dL
  GLC: 202.4 mg/dL
  IP: 7.1 mg/dL
  K: 3.9 meq/L
  LDH: 196 IU/L
  Na: 141.6 meq/L
  PL: 143.8 mg/dL
  RALB: 3.3 g/dL
  TBIL: 0.1 mg/dL
  TC: 77.6 mg/dL
  TG: 118.8 mg/dL
  TP: 5.5 g/dL
  gamma-GTP: 1.2 IU/L
